Assay results published in PMC6767236, “Selective Cannabinoid 2 Receptor Agonists as Potential Therapeutic Drugs for the Treatment of Endotoxin-Induced Uveitis” (Molecules, 2019).
Like-named read-outs stand apart in the source and are kept apart here.

What was measured:
[1] = parameters: method as in earlier work; details: * previously published; cited from earlier work
human CB2R [2] = target: T1, human CB2R (Homo sapiens, UniProt P34972); assay: Radioligand binding assay, human CB2R ([3H]-CP55940)
T1 construct: bgal (beta-galactosidase fragment of the PathHunter system, named only in the cell line's name); host or cells: CHO-K1 (CHOK1hCB2_bgal)
T1 sequence (P34972 whole entry, the tested form may be a part): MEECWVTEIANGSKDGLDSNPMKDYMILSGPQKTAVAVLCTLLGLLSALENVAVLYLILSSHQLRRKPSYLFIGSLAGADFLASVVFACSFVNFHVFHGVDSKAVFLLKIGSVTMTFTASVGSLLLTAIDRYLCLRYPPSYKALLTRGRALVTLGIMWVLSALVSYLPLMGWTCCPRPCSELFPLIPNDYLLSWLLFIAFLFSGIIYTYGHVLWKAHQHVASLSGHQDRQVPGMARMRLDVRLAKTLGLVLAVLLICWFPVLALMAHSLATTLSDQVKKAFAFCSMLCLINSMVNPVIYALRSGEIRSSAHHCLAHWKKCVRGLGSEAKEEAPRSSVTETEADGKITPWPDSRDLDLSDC
Experimental: Membrane fractions were prepared from cultured CHOK1hCB1_bgal, CHOK1hCB2_bgal, and CHOK1mCB2_bgal cells (DiscoveRx, Fremont, CA, USA) as previously described. Protein concentration was determined using the Pierce bicinchoninic acid (BCA) protein assay (Rochford, IL, USA) as per the manufacturer’s instructions.
Radio ligand-binding assays were carried out as described by Souethoudt et al. (2018). Briefly, membranes from cells expressing human CB2R or CB1R or mouse CB2R and the radioligand, [^3H]-CP55940 (Perkin Elmer, Basel, Switzerland) was used. […] Membrane aliquots containing 5 µg (CHOK1hCB1_bgal) or 1 µg (CHOK1hCB2_bgal) of membrane protein in 100 µL assay buffer (50 mMTris-HCl, 5 mM MgCl2, 0.1% bovine serum albumin (BSA), pH 7.4) were incubated at 30 °C for 1 h, in presence of 3.5 nM of [^3H]-CP55940 (CHOK1hCB1_bgal) or 1.5 nM [^3H]-CP55940 (CHOK1hCB2_bgal). The incubation was terminated by rapid filtration performed on glass microfibre (GF/C) filters (Whatman International, Maidstone, UK), presoaked for 30 min with 0.25% polyethyleneimine (PEI), and using a Brandel harvester (Brandel, Gaithersburg, MD, USA). Filter-bound radioactivity was determined by scintillation spectrometry using a Tri-Carb 2900 TR liquid scintillation counter (Perkin Elmer, Boston, MA, USA). […] In all receptor binding experiments, nonspecific binding was determined in the presence of 1 µM “cold” agonist.

human CB2R [3] = target: T1, human CB2R; assay: cAMP assay, CHO cells expressing human CB2R; assay type: cell-based
Experimental: The effect of ligands on the forskolin-stimulated accumulation of cAMP was determined using the LANCE ULTRA cAMP kit as per the manufacturer’s instruction (Perkin-Elmer Life Sciences, Boston, MA, USA).
For human CB2R and CB1R, cAMP assays were performed using CHO cells stably expressing human CB2R or human CB1R (DiscoveRx, Fremont, CA, USA) using a cAMP-Nano-TRF detection kit (Roche Diagnostics, Penzberg, Germany). Cells were seeded 17–24 h prior to the experiment at a density of 3 × 10^4 cells per well in a black 96-well plate with clear flat bottom (Corning, Wiesbaden, Germany) and incubated in 5% CO2 at 37 °C in a humidified incubator. The growth medium was exchanged with Krebs Ringer bicarbonate buffer with 1 mmol/L 3-isobutyl-1-methylxanthine (IBMX), 0.1% fatty acid-free BSA and incubated at 30 °C for 60 min. Agonist was added to a final assay volume of 100 μL and the mixture was incubated for 30 min at 30 °C. The assay was stopped by the addition of 50 μL 3 × lysis reagent and shaken for 2 h at room temperature. The time-resolved fluorescence energy transfer was measured using an LF502 Nanoscan FLT (IOM, Berlin, Germany), equipped with a laser as excitation source. cAMP content was determined from the function of a standard curve spanning from 10 to 0.13 nmol/L cAMP. Efficacies are expressed as percent relative to 1 µM CP55940.

[4] = Octanol/water distribution coefficient (logD)
mouse CB2R [5] = target: T2, mouse CB2R (Mus musculus, UniProt P47936); parameters: bgal (beta-galactosidase fragment of the PathHunter system, named only in the cell line's name); host or cells: CHO-K1 (CHOK1mCB2_bgal); details: * previously published; read-out: mouse CB2R: cAMP EC50; cited from earlier work
T2 sequence (P47936 whole entry, the tested form may be a part): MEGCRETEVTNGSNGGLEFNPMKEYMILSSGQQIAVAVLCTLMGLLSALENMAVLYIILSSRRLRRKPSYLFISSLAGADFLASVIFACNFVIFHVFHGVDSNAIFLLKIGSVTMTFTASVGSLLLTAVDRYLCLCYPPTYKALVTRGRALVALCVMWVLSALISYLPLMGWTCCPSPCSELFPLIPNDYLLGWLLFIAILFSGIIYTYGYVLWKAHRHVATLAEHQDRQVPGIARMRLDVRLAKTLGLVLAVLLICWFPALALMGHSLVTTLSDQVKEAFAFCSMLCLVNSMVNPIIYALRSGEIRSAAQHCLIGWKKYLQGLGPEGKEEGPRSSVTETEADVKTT

mouse CB2R [6] = target: T2, mouse CB2R; parameters: bgal (beta-galactosidase fragment of the PathHunter system, named only in the cell line's name); host or cells: CHO-K1 (CHOK1mCB2_bgal); details: [3H]-CP55940 displacement; * previously published; cited from earlier work
[7] = parameters: method as in earlier work; details: * previously published, cited from earlier work
in vivo = details: for AUCINF D: mouse, i.v., HU308 2 mg/kg, RO6871304 0.5 mg/kg
Experimental: Mouse Pharmacokinetic Profiles
Male C57Bl/6 mice (Charles River, Fra nce) were used to study the pharmacokinetics of CB 2R ligands after i.v. and p.o. administration. Animals were up to 12 weeks of age. All animal studies in this section were performed at Hoffmann-La Roche and approved by the Federal Food Safety and Veterinary Office of the Swiss Confederation. Test compounds were formulated according to respective protocols either by dissolution (i.v.) or as aqueous suspensions in a glass potter until homogeneity was achieved (p.o.; formulated as a solution in ethanol/cremophor EL/ 0.9% NaCl (5%/5%/90%)). Formulations were injected i.v. using a 30G needle in the lateral tail vein of mice using a volume of 50 μL in the dose indicated. For p.o. applications, animals were gavaged using a volume of 100 μL in the dose indicated. At the following time points blood was drawn into EDTA: 0.08, 0.25, 0.5, 1, 2, 4, 7 h (for p.o. the first time point was omitted). Six animals were used for each compound.
Animals were distributed randomly over the time course and at each time point, a volume of 100 μL of blood was taken. Quantitative plasma measurement of the compound was performed by LC-MS/MS analysis. Pharmacokinetic analysis was performed using Phoenix WinNonlin 6.4 software using a non-compartmental approach consistent with the route of administration. For assessment of the exposure, Cmax, Tmax, and area under the curve (AUC) were determined from the serum concentration profiles. Parameters (clearance, […], T1/2) were estimated using nominal sampling times relative to the start of each administration. Co (initial concentration) was extrapolated from the first concentration measured following i.v. administration. […]

[8] = male, C57Bl/6, mouse, in vivo, iv
[9] = male, C57Bl/6, mouse, in vivo, iv, 2 mg/kg

In the case of CCCCCCC(C)(C)c1cc(OC)c(C2=C[C@H]3CC[C@]2(CO)C3(C)C)c(OC)c1 [HU910, {(1S,4R)-2-[2,6-dimethoxy-4-(2-methyloctan-2-yl)phenyl]-7,7-dimethylbicyclo[2.2.1]hept-2-en-1-yl}methanol, reference compound], the “Plasma Protein Binding: FREE Fraction mouse” value [1] is given as 4.1%, the “hCB1R Ki/hCB2R Ki” value (human CB2R [2]) is given as 89 and the “hCB1R cAMP EC50/hCB2R cAMP EC50” value (human CB2R [3]) is given as over 2500. The “LogD (at pH 7.4)” value [4] was “out of range”.
In the case of Cc1nc([C@](C)(CC2CC2)NC(=O)c2cc(OCC(F)(F)F)c(C3CC3)cn2)no1 [RO6871085, 5-Cyclopropyl-N-[(2S)-1-cyclopropyl-2-(5-methyl-1,2,4-oxadiazol-3-yl)propan-2-yl]-4-(2,2,2-trifluoroethoxy)pyridine-2-carboxamide], the EC50 (mouse CB2R [5]) is listed as 3 nM, the “Plasma Protein Binding: FREE Fraction mouse” value [1] is listed as 0.9% and the Ki (mouse CB2R [6]) is listed as 6 nM. For the same molecule, the “pKa (acidic, calculated)” value ([7]; calculated) was 10.1 and the “pKa (basic, calculated)” value ([7]; calculated) was 2.6.
With CCCCCCC(C)(C)c1cc(OC)c([C@H]2C=C(CO)[C@H]3C[C@@H]2C3(C)C)c(OC)c1 [HU308, {(1S,4S,5S)-4-[2,6-Dimethoxy-4-(2-methyloctan-2-yl)phenyl]-6,6-dimethylbicyclo[3.1.1]hept-2-en-2-yl}methanol, reference compound] the half-life (in vivo; [8]) was 2.15 h, the Vd (in vivo; [9]) was 2.9 L/kg and the clearance (in vivo; [9]) was 36.6 mL/min/kg. For the same molecule, the “AUCINF D” value (in vivo) was 456 ng·kg·h/mL/mg and the logD ([4]; octanol/water, pH 7.4) was 4.29.
In the case of CNC(=O)[C@@H](NC(=O)c1cc(OCC2(C)COC2)c(C2CC2)cn1)C(C)(C)C [RO6851228, 5-Cyclopropyl-N-[(2S)-3,3-dimethyl-1-(methylamino)-1-oxobutan-2-yl]-4-[(3-methyloxetan-3-yl)methoxy]pyridine-2-carboxamide], the EC50 (mouse CB2R [5]) is given as 4 nM, the Ki (mouse CB2R [6]) is given as 1 nM and the “pKa (basic)” value [7] is given as 3.3.
With CC(C)(C)c1nc(N2CC[C@H](O)C2)c2nnn(Cc3nnnn3C3CC3)c2n1 [RO6871304, (3S)-1-{5-tert-butyl-3-[(1-cyclopropyl-1H-tetrazol-5-yl)methyl]-3H-[1,2, 3]triazolo[4,5-d]pyrimidin-7-yl}pyrrolidin-3-ol] the half-life (in vivo; [8]) was 0.32 h, the “AUCINF D” value (in vivo) was 456 ng·kg·h/mL/mg and the Ki (human CB2R [2]; [3H]-CP55940 displacement, read-out: hCB2R: Ki) was 17 nM. For the same molecule, the “hCB1R cAMP EC50/hCB2R cAMP EC50” value (human CB2R [3]; functional selectivity) was >10,000.
